One block for each compound: values may come before it.
Key:
[1] = target: T1, P2Y purinoceptor 14 (Homo sapiens) (UniProt Q15391); settings: time 30.0 min
T1 sequence (whole entry): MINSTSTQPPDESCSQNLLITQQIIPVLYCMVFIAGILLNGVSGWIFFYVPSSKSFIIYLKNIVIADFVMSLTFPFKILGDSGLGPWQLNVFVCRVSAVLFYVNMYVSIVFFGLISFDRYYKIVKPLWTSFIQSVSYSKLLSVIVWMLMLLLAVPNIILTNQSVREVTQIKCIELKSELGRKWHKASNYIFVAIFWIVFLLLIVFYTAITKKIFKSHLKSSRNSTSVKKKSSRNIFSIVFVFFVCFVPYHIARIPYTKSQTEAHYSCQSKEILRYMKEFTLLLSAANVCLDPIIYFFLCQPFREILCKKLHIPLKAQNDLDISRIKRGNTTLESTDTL

[2] = target: T2, P2Y purinoceptor 14 (Homo sapiens, UniProt Q15391); assay: Antagonist activity at human P2Y14R stably expressed in HEK293 cells assessed as inhibition of forskolin-[…] cAMP production incubated for 30 mins by cAMP-Glo assay; type: functional, cell-based
T2 sequence (Q15391 whole entry): T1 sequence (whole entry)

[3] = Clearance in SD […] at 10 mg/kg, iv measured for 24 hrs; type: ADME, organism-based; settings: in vivo
[4] = target: Cytochrome P450 2D6 (Homo sapiens, UniProt P10635); assay: Inhibition of CYP2D6 in human liver microsomes using dextromethorphan as substrate preincubated for 10 mins followed by substrate addition measured after 30 mins by LC/MS analysis; type: ADME, Microsome
Sequence of Cytochrome P450 2D6 (P10635 whole entry): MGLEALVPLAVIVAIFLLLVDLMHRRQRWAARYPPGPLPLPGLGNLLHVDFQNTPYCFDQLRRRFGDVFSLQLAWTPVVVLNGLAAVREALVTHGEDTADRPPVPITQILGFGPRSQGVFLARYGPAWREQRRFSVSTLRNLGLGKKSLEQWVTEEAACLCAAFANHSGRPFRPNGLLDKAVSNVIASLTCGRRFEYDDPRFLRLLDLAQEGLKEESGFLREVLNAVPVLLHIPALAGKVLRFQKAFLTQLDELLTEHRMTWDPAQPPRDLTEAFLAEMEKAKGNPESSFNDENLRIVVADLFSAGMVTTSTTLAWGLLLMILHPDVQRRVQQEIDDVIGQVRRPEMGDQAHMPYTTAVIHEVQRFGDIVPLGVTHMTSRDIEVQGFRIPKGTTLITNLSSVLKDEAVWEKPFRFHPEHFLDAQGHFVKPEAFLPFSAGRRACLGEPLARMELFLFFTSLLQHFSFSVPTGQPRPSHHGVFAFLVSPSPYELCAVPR

[5] = Tmax in SD […] at 10 mg/kg, iv measured for 24 hrs; type: ADME, organism-based; settings: in vivo
[6] = Cmax in SD […] at 20 mg/kg, po measured for 24 hrs; type: ADME, organism-based; settings: in vivo
[7] = target: Cytochrome P450 3A4 (Homo sapiens, UniProt P08684); assay: Inhibition of CYP3A4 in human liver microsomes using midazolam as substrate preincubated for 10 mins followed by substrate addition measured after 30 mins by LC/MS analysis; type: ADME, Microsome
Sequence of Cytochrome P450 3A4 (P08684 whole entry): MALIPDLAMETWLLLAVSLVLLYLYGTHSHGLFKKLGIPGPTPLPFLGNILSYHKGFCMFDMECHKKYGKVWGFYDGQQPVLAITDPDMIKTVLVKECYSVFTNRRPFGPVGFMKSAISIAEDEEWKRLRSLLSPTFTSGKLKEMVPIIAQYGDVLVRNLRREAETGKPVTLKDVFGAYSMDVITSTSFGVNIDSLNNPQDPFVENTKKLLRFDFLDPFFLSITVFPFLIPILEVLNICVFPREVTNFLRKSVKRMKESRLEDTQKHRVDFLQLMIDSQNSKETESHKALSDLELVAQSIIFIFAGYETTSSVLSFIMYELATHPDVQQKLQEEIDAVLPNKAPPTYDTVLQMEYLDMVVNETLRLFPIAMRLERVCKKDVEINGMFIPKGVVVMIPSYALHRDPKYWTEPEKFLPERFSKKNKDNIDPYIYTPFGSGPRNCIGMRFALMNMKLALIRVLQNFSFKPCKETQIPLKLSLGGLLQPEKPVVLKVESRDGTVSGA

[8] = target: P2Y purinoceptor 6 (Homo sapiens, UniProt Q15077); assay: Inhibition of human P2Y6R stably expressed in UDP-stimulated HEK293 cells incubated for 0.5 hrs by IP3 production assay; type: functional, cell-based
Sequence of P2Y purinoceptor 6 (Q15077 whole entry): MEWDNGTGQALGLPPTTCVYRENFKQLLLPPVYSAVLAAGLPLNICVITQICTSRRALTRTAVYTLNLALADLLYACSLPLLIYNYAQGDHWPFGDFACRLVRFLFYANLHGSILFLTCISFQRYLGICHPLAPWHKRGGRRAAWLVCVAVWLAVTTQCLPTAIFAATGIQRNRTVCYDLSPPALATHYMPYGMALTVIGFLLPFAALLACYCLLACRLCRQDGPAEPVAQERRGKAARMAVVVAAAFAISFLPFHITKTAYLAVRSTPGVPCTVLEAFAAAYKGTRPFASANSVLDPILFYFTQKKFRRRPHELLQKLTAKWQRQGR

[9] = AUC (0 to 24 hrs) in SD […] at 20 mg/kg, po; type: ADME, organism-based; settings: in vivo
[10] = tested on: HUVEC; assay: Cytotoxicity against MSU/LPS-stimulated HUVEC cells assessed as decrease in cell viability at 256 uM incubated for 24 hrs by SRB assay; type: toxicity, cell-based; settings: human
[11] = Stability in SIF assessed as half life; type: ADME
[12] = Half life in SD […] at 20 mg/kg, po measured for 24 hrs; type: ADME, organism-based; settings: in vivo
[13] = Tmax in SD […] at 20 mg/kg, po measured for 24 hrs; type: ADME, organism-based; settings: in vivo
[14] = target: Cytochrome P450 2C9 (Homo sapiens, UniProt P11712); assay: Inhibition of CYP2C9 in human liver microsomes using diclofenac as substrate preincubated for 10 mins followed by substrate addition measured after 30 mins by LC/MS analysis; type: ADME, Microsome
Sequence of Cytochrome P450 2C9 (P11712 whole entry): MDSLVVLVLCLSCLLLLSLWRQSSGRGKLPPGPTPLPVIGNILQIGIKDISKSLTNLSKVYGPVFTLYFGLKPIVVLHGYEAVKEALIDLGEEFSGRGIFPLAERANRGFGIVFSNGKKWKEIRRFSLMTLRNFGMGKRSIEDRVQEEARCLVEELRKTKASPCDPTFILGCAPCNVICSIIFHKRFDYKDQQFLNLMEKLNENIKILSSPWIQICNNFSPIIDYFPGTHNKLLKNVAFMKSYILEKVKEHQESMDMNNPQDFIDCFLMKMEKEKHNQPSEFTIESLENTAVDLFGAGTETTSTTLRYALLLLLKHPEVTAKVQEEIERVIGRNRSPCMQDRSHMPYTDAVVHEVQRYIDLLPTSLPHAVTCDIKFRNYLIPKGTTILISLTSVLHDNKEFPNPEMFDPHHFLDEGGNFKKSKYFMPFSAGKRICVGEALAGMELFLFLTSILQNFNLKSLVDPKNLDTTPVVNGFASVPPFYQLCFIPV

[15] = target: Voltage-gated inwardly rectifying potassium channel KCNH2 (Homo sapiens, UniProt Q12809); assay: Inhibition of hERG expressed in HEK293 by whole cell Q-patch analysis; type: toxicity, cell-based
Sequence of Voltage-gated inwardly rectifying potassium channel KCNH2 (Q12809 whole entry): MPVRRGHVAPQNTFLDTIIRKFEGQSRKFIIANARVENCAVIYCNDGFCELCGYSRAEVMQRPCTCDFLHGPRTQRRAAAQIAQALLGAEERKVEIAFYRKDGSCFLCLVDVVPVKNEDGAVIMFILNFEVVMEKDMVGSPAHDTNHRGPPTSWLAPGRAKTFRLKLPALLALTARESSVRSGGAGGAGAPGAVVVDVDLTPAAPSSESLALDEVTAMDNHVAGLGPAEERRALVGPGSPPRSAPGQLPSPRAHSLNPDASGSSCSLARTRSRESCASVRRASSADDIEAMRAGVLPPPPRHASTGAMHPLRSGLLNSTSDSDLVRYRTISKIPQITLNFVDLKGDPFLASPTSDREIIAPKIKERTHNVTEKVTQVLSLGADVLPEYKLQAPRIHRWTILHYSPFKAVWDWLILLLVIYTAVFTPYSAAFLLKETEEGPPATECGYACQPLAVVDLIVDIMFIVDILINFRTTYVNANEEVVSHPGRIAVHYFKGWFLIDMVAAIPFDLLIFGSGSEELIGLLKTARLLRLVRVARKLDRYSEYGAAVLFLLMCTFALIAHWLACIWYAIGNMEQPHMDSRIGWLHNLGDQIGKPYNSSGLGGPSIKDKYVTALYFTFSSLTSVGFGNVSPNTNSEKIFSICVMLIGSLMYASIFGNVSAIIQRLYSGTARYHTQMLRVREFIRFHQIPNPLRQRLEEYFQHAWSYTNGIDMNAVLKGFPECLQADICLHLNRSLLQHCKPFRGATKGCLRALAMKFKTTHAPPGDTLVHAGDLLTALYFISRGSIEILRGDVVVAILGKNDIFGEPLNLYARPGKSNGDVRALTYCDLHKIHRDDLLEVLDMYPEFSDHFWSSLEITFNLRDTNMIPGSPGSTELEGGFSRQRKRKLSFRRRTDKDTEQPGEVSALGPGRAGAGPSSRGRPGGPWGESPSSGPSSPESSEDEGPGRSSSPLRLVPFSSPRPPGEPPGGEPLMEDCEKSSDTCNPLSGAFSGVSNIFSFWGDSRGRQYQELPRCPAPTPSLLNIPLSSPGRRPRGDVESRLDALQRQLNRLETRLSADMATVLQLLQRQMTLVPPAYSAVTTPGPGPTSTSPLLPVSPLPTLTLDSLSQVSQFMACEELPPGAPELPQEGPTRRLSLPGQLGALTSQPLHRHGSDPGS

[16] = target: T3, Cytochrome P450 1A2 (Homo sapiens, UniProt P05177); assay: Inhibition of CYP1A2 in human liver microsomes using phenacetin as substrate preincubated for 10 mins followed by substrate addition measured after 30 mins by LC/MS analysis; type: ADME, Microsome
T3 sequence (P05177 whole entry): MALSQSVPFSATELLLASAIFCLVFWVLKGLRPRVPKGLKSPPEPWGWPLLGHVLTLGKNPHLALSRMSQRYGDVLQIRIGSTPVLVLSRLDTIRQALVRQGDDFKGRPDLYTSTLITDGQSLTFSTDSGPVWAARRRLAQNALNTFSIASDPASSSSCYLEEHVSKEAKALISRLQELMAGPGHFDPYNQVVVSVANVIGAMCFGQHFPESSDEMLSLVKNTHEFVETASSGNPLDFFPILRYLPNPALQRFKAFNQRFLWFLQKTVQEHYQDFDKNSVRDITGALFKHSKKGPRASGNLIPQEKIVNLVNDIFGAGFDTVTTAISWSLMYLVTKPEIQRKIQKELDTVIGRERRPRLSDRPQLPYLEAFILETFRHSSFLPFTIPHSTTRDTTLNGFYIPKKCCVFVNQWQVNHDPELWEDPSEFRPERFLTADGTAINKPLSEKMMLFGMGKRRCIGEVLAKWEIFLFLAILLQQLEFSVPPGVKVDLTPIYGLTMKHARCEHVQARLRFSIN

[17] = Stability in SGF assessed as half life; type: ADME
[18] = Oral bioavailability in SD […] at 20 mg/kg measured for 24 hrs; type: ADME, organism-based; settings: in vivo
[19] = target: Cytochrome P450 2C19 (Homo sapiens, UniProt P33261); assay: Inhibition of CYP2C19 in human liver microsomes using S-mephenytoin as substrate preincubated for 10 mins followed by substrate addition measured after 30 mins by LC/MS analysis; type: ADME, Microsome
Sequence of Cytochrome P450 2C19 (P33261 whole entry): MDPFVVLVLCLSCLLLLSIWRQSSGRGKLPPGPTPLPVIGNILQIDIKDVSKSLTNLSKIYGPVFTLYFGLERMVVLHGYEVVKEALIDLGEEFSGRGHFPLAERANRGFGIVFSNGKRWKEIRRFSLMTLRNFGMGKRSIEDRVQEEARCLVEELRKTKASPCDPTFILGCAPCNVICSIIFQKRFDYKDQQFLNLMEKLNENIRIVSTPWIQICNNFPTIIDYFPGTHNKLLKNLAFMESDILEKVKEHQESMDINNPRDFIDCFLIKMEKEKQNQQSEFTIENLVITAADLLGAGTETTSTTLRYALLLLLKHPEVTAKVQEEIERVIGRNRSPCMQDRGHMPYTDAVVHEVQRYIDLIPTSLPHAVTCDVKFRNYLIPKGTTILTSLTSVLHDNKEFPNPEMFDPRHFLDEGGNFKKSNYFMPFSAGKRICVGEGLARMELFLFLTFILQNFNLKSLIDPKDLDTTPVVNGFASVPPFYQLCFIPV

[20] = Cmax in SD […] at 10 mg/kg, iv measured for 24 hrs; type: ADME, organism-based; settings: in vivo
[21] = Stability in human liver microsomes assessed as half life measured for 45 mins by LC-MS/MS analysis; type: ADME, Microsome
[22] = Clearance in SD […] at 20 mg/kg, po measured for 24 hrs; type: ADME, organism-based; settings: in vivo
[23] = AUC (0 to 24 hrs) in SD […] at 10 mg/kg, iv; type: ADME, organism-based; settings: in vivo
[24] = tested on: HEK-293T; assay: Cytotoxicity against MSU/LPS-stimulated HEK293T cells assessed as decrease in cell viability at 256 uM incubated for 24 hrs by SRB assay; type: toxicity, cell-based; settings: human
[25] = target: P2Y purinoceptor 12 (Homo sapiens, UniProt Q9H244); assay: Inhibition of human P2Y12R stably expressed in 2-MeSADP -stimulated HEK293 cells incubated for 0.5 hrs by cAMP production assay; type: functional, cell-based
Sequence of P2Y purinoceptor 12 (Q9H244 whole entry): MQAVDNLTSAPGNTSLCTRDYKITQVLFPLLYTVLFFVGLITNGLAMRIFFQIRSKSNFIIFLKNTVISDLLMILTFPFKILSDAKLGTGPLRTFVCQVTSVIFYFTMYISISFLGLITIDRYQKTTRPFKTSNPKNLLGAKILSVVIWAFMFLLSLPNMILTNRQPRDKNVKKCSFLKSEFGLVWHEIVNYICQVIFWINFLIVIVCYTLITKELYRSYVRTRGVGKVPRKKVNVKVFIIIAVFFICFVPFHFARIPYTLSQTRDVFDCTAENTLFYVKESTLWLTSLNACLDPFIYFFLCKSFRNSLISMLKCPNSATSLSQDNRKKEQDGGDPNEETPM

[26] = Half life in SD […] at 10 mg/kg, iv measured for 24 hrs; type: ADME, organism-based; settings: in vivo
[27] = HEK293, filed as antagonist, dose 100.0 nM

SMILES: O=Cc1ccc(OCC(=O)Nc2ccc3nc[nH]c3c2)cc1
inhibition [1, 27]: 95.2%
IC50 [2]: 0.0013 µM

SMILES: O=C(COc1ccc(Br)cc1)Nc1ccc2cccnc2c1
inhibition ([1]; HEK293, dose 100.0 nM): 15.2%

SMILES: Cc1ccc(OCC(=O)Nc2ccc3sccc3c2)cc1
inhibition [1, 27]: 41.3%

SMILES: Cc1ccc(OCC(=O)Nc2ccc3cc[nH]c3c2)cc1
inhibition [1, 27]: 48.3%

SMILES: O=Cc1ccc(OCC(=O)Nc2ccc3cccnc3c2)cc1
inhibition ([1]; HEK293, dose 100.0 nM): 17.6%

SMILES: O=C(COc1ccc(C(F)(F)F)cc1)Nc1ccc2cccnc2c1
inhibition ([1]; HEK293, dose 100.0 nM): 38.3%

SMILES: COc1ccc(OCC(=O)Nc2ccc3nc[nH]c3c2)cc1
inhibition ([1]; HEK293, dose 100.0 nM): 10.2%

SMILES: Cc1ccc(OCC(=O)Nc2ccc3ncsc3c2)cc1
inhibition ([1]; HEK293, dose 100.0 nM): 17.9%

SMILES: CC(C)c1ccc(OCC(=O)Nc2ccc3nc[nH]c3c2)cc1
inhibition ([1]; HEK293, dose 100.0 nM): 21.8%

SMILES: Cc1ccc(OCC(=O)Nc2ccc3cn[nH]c3c2)cc1
inhibition ([1]; HEK293, dose 100.0 nM): 11.3%

The next lines start with results.

inhibition ([1]; HEK293, dose 100.0 nM): 16.3%
SMILES: O=C(COc1ccc(CO)cc1)Nc1ccc2cccnc2c1

inhibition ([1]; HEK293, dose 100.0 nM): 32%
SMILES: Cc1ccc(OCC(=O)Nc2ccc3ncoc3c2)cc1

inhibition ([1]; HEK293, dose 100.0 nM): 12.1%
SMILES: O=C(COc1ccc(Cl)cc1)Nc1ccc2cccnc2c1

clearance [3]: 3.5 mL/min/kg
IC50 [4]: > 50 µM
Tmax [5]: 0.3 h
Cmax [6]: 2900 ng/mL
IC50 [7]: 19.6 µM
IC50 [8]: 89.7 µM
AUC [9]: 2845 µg/L/h
half-life [11]: > 5 h
half-life [12]: 12.6 h
Tmax [13]: 0.533 h
IC50 [14]: > 50 µM
IC50 [16]: > 50 µM
half-life [17]: > 50 h
bioavailability [18]: 75%
IC50 [19]: > 50 µM
Cmax [20]: 1530 ng/mL
half-life [21]: 3.27 h
CL/F [22]: 14.8 mL/min/kg
AUC [23]: 1765 µg/L/h
IC50 [25]: > 100 µM
half-life [26]: 7.6 h
SMILES: O=C(COc1ccc(Br)cc1)Nc1ccc2nc[nH]c2c1
Activity [10]: Non-Toxic
IC50 [15]: > 50 µM
Activity [24]: Non-Toxic

From ChEMBL document CHEMBL5512695, “Discovery of N-Substituted Acetamide Derivatives as Promising P2Y14R Antagonists Using Molecular Hybridization Based on Crystallographic Overlay” (J Med Chem, 2024)
